Here are results for 14 compounds from PubChem BioAssay (NCI).

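Five concentrations, 48 hours, 96-well plates. The concentration for 50% growth inhibition is given as GI50. Definition used: TGI = concentration required for complete inhibition of growth.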

Some test systems named below: XF 498 CNS; KM20L2 colon; DMS 273 small cell lung; RXF-631 renal; SNB-78 CNS; DLD-1 colon; LXFL 529 NSCLC; DMS 114 small cell lung; BT-549 breast.
What all share (experiment): NCI anticancer screen, dose series, 48 h

Take `C=CC1(C(=O)O)CCC(C(C)(C)C)CC1` (stereo not given): the TGI with XF 498 CNS, with KM20L2 colon, in the assay with DMS 273 small cell lung, in the assay on RXF-631 renal, in the assay with SNB-78 CNS and with DLD-1 colon was > 100 µM throughout. Besides, the TGI with LXFL 529 NSCLC and in the assay on DMS 114 small cell lung was > 100 µM in each case.
For the compound `O=C1c2ccccc2-c2cccc3ccc(Cc4ccc5ccccc5c4)c1c23`, the TGI with XF 498 CNS, in the assay on KM20L2 colon, in the assay on DMS 273 small cell lung, with RXF-631 renal, with SNB-78 CNS and in the assay on DLD-1 colon was > 100 µM each time.
For `CC[C@@H]1OC2(C)CC(S(=O)(=O)c3ccccc3O)CC1O2` (stereo not given in full), the TGI in the assay on KM20L2 colon, in the assay with DMS 273 small cell lung, in the assay on RXF-631 renal, in the assay on DLD-1 colon and in the assay on LXFL 529 NSCLC was > 100 µM in each case.
`COc1cc(Cl)c2c3c(c(C(C)=O)oc13)CCC2`: the TGI in the assay on KM20L2 colon, with DMS 273 small cell lung, in the assay with RXF-631 renal, with SNB-78 CNS, with DLD-1 colon and with LXFL 529 NSCLC was > 100 µM each time. In addition, the TGI in the assay with DMS 114 small cell lung is > 100 µM.
For `Cc1c(NC(=O)C(C)(C)Br)c(=O)oc2c(C)c3occc(=O)c3cc12`, the TGI is 98.6 µM in the assay with XF 498 CNS; > 100 µM with KM20L2 colon; > 100 µM in the assay on DMS 273 small cell lung; > 100 µM with RXF-631 renal; > 100 µM in the assay on DLD-1 colon; > 100 µM in the assay on LXFL 529 NSCLC. Also, the TGI in the assay on DMS 114 small cell lung was > 100 µM.
Take `c1ccc2c(c1)CCC/C2=N\OCC1CO1` (stereo not given): the TGI in the assay with XF 498 CNS, in the assay with KM20L2 colon, in the assay with DMS 273 small cell lung, in the assay on RXF-631 renal, in the assay on SNB-78 CNS and in the assay with DLD-1 colon was > 100 µM each time. The TGI in the assay on LXFL 529 NSCLC is > 100 µM.
Turning to `O=C1OC(CC(=O)c2ccc(Cl)c(Cl)c2)C(Cl)=C1Cl` (stereo not given), the TGI in the assay on XF 498 CNS, in the assay with KM20L2 colon, in the assay with DMS 273 small cell lung, in the assay on RXF-631 renal, with DLD-1 colon and with LXFL 529 NSCLC was > 100 µM each time. Also, the TGI in the assay on DMS 114 small cell lung is > 100 µM.
`COC(=O)C1C(C(=O)OC)C2(OC)c3ccccc3-c3ccccc3C12` (stereo not given): the TGI was 87.9 µM in the assay with KM20L2 colon; 43 µM in the assay on DMS 273 small cell lung; > 100 µM in the assay with RXF-631 renal; > 100 µM with DLD-1 colon; > 100 µM in the assay on LXFL 529 NSCLC; 87.9 µM in the assay with DMS 114 small cell lung.
In the case of `CCCCOC(=O)NC(=O)c1cn(CCCOC(=O)CCCCCCCCC(=O)OCCCn2cc(C(=O)NC(=O)OCCCC)c(=O)[nH]c2=O)c(=O)[nH]c1=O`, the TGI in the assay with XF 498 CNS, in the assay with KM20L2 colon, with RXF-631 renal, in the assay with DLD-1 colon, in the assay on LXFL 529 NSCLC and with DMS 114 small cell lung was > 100 µM each time.
Regarding `CCN(CC)CC(O)CNc1ccc(NCC2CO2)c2c1C(=O)c1ccccc1C2=O` (stereo not given), the TGI in the assay on KM20L2 colon worked out at 8.63 µM; in the assay on DMS 273 small cell lung it was 1.68 µM; in the assay on RXF-631 renal it was 2.24 µM; with SNB-78 CNS, 2.6 µM; in the assay on BT-549 breast it was 4.27 µM; in the assay with DLD-1 colon, 10.7 µM. The TGI in the assay with LXFL 529 NSCLC was determined as 0.247 µM; with DMS 114 small cell lung, 4.43 µM. Further, the GI50 in the assay with BT-549 breast was 1.22 µM.
Consider `CC(C)CS(=O)(=O)/C(=C(\c1ccc(Br)cc1)S(=O)(=O)CC(C)C)c1ccc(Br)cc1`, for which the TGI with XF 498 CNS, with KM20L2 colon, with DMS 273 small cell lung, in the assay on RXF-631 renal, with SNB-78 CNS and with DLD-1 colon was > 100 µM in each case. In addition, the TGI with LXFL 529 NSCLC was > 100 µM.
Consider `NNC(=O)/C(=C/c1ccc(Cl)c(Cl)c1)NC(=O)c1ccccc1`, for which the TGI in the assay on XF 498 CNS, with KM20L2 colon, with RXF-631 renal, with SNB-78 CNS, in the assay with DLD-1 colon and in the assay with LXFL 529 NSCLC was > 100 µM each time. Further, in the assay with DMS 114 small cell lung, the TGI is > 100 µM.
In the case of `CCCCCCCCC[C@@H]1CC(=O)OCC2OC(O[C@H](CCCCCCCCC)CC(=O)OCC3OC(O[C@H](CCCCCCCCC)CC(=O)OCC4OC(O1)C(O)C(O)C4O)C(O)C(O)C3O)C(O)C(O)C2O` (stereo not given in full), the TGI worked out at 23.3 µM with XF 498 CNS; 19.7 µM with KM20L2 colon; 21.6 µM in the assay on DMS 273 small cell lung; 34.6 µM in the assay with SNB-78 CNS; 28.2 µM in the assay with DLD-1 colon; 18 µM in the assay on LXFL 529 NSCLC. In addition, in the assay on DMS 114 small cell lung, the TGI amounted to 24 µM.
Take `O=S(=O)(N/N=C/c1ccc(/C=N/NS(=O)(=O)c2ccccc2)cc1)c1ccccc1`: the TGI in the assay on XF 498 CNS, in the assay on KM20L2 colon, in the assay on DMS 273 small cell lung, in the assay on RXF-631 renal, in the assay with SNB-78 CNS and in the assay with DMS 114 small cell lung was > 100 µM each time.
